The values that follow come from article PMC5145181, “Structural Mapping and Functional Characterization of Zebrafish Class B G-Protein Coupled Receptor (GPCR) with Dual Ligand Selectivity towards GLP-1 and Glucagon” (PLoS ONE, 2016).

The subject of one experiment is GLP-1R. To be noted: cited from earlier work. The source says:
Receptors for GLP-1 (GLP-1R) and glucagon (GCGR) belong to the class B GPCRs that mediate the physiological effects of the peptides within the glucagon-secretin peptide family. Their structures are characterized by large amino terminal extracellular domains which are about 140 amino acids long and an intracellular core consisting of a cytoplasmic domain and seven transmembrane helices (7TMs) connected through three extracellular and three intracellular loops.

The next experiment deals with fish hepatocytes. To be noted: GLP-1 from both human and fish; cited from earlier work. The source says: Our approach to understanding the selectivity of ligand recognition by the receptors for the gluco-regulatory peptides, GLP-1 and glucagon, has been to functionally characterize the ligand selectivity of GCGRs and GLP-1Rs from non-mammalian vertebrates and to compare them to the ligand selectivity of their mammalian counterparts. […] In the abs ...

Experiment [1] relates to zfGPCR (dual zfGLP-1R/GCGR). The experiment can be described thus: Competitive binding, displacement of 125I-hGLP-1(7–36)amide from recombinant zfGPCR expressed in COS-7 cells. On the set-up: species or system zebrafish (Danio rerio). Conditions: 125I-hGLP-1(7–36)amide tracer, intact COS-7 cells, 16–18 h at 4°C, triplicate wells; NSB with 1 μM peptide; n = 3 hGLP-1, n = 2 zf glucagon, exendin-4, exendin(9–39), n = 1 zfGLP-1. 95% CI: zfGLP-1 1.2–3.6; hGLP-1 0.98–13; zf glucagon 1.4–4.0; exendin-4 0.24–0.92; exendin(9–39) 2.4–14. The procedure: (§1) Competitive binding experiments were performed with the recombinant zfGPCR expressed in COS-7 cells, as described previously. Transient transfections of pcDNA3 vector containing recombinant zfGPCR into COS-7 cells were performed as described below for the stimulation of intracellular cAMP. Cells were grown in 100-mm plates to confluence and 24 hr after transfection they were trypsinized and transferred to 24 well plates (Biocore, Becton Dickinson). 24–48 hr later each peptide (pM to μM) was added in triplicate wells followed by the addition of an aliquot (100,000 cpm/well) of either ^125I-hGLP-1(7–36)amide or ^125I-exendin(9–39) (each radioactive peptide tracer at […] receptor grade, NEN Life Science Products, Boston, MA). Peptides, radioiodinated ^125I-tracer and cells were incubated for 16–18 h at 4°C. After incubation cells were washed twice with ice-cold PBS, lysed with 1N NaOH and radioactivity measured in a γ-counter. A single dose-displacement curve for each peptide was obtained in a single 24-well plate.
Dose-response curves for zfGLP-1, zfGLP-2 and zebrafish PACAP-38 were obtained from one transfection. […] Lower rounds of transfections were performed in experiments that replicated our published results from the competitive binding experiments with the displacement of ^125I-hGLP-1(7–36)amide binding to zfGPCR [41] and thus represented positive controls for these studies.
(§2) IC50 values represent an average of n experiments as described above and were calculated by the Prism 4 software. Displacement curves from the competitive binding experiments were plotted by Origin 9 software (OriginLab). Error bars are shown for data points in the displacement curves obtained in two or more rounds of transfections.
(§3) Results from the functional experiments with recombinant zfGPCR transiently expressed in COS-7 cells were analyzed by the Prism 4 software using a four-parameter logistic sigmoidal curve fit model. Data points represent mean +/- SEM.
They are shown together with the 95% confidence intervals (CIs). […]

Experiment [2] deals with zfGPCR (dual zfGLP-1R/GCGR). The experiment can be described thus: Competitive binding, displacement of 125I-exendin(9–39) from recombinant zfGPCR expressed in COS-7 cells. On the set-up: species or system zebrafish (Danio rerio). Conditions: 125I-exendin(9–39) tracer, intact COS-7 cells, 16–18 h at 4°C, triplicate wells, NSB with 1 μM peptide, n = 4 zfGLP-1, n = 3 hGLP-1, zf glucagon, exendin-4, n = 5 exendin(9–39). 95% CI: zfGLP-1 225–371, hGLP-1 121–262, zf glucagon 78.5–144, h glucagon 33.6–134, exendin-4 0.84–1.17, exendin(9–39) 3.42–5.17. The procedure:
as §1
Non-specific binding was determined in the presence of 1μM of each peptide.
as §2, §3
They are shown together with the 95% confidence intervals (CIs). The F-test was used to compare the IC50 value for zfGLP-1 with the IC50 values for the other tested peptides obtained in the competitive binding experiments shown when ^125I-hGLP-1(7–36)amide or ^125I-exendin (9–39) were used as tracers. Following conditions were used for the curve fitting: (i) in the normalization step y = 0%was set to be 0, y = 100% was set to be 100; (ii) constrained curve-fit parameters were set to be equal to 0.00 on the bottom, 100 on top; (iii) IC50 was not constrained; (iv) the selected option in the non-linear regression curve fit was intended on finding out whether the best-fit of a selected parameter (IC50) differs between two sets.
(In general: In a radioligand displacement assay an active substance lowers the binding of a labelled ligand.)

For experiment [3], the system named is zfGPCR (dual zfGLP-1R/GCGR). The experiment can be described thus: Intracellular cAMP in COS-7 cells expressing recombinant zfGPCR. Type of experiment: cell-based, zebrafish (Danio rerio). Conditions: for EC50: 20 min at 37°C, pH 7.4, 1 mM 1-methyl-3-isobutylxanthine, enzyme immunoassay, n = 9 zfGLP-1, n = 5 hGLP-1, zf glucagon, h glucagon, n = 3 exendin-4, n = 6 zfGLP-2. 95% CI: zfGLP-1 0.24–0.80, hGLP-1 0.65–1.63, zf glucagon 0.20–2.9, h glucagon 0.18–1.63, exendin-4 0.07–0.46, zfGLP-2 16.8–72.6. The procedure:
The ability of different peptides to stimulate the increase in intracellular cAMP levels following their binding to the recombinant zfGPCR transiently expressed in COS-7 cells was measured using methods that we developed for non-mammalian G-protein coupled receptors. In brief, COS-7 cells were grown to confluence in 100-mm plates at 37°C and transfected with the pcDNA3 vector containing the recombinant zfGPCR using the TransFast transfection reagent (Promega, Madison, WI) at a […] of plasmid DNA (25 ug) to transfection reagent (75 μL). After 24 h cells were trypsynized and transferred to 24-well plates (Biocore, Becton-Dickinson, Franklin Lakes, NJ). Peptides (pM-μM) were added 24–48 h later. Cells were equilibrated prior to the addition of peptides with the assay buffer (DMEM, 0.5% BSA, 20mM HEPES, 1mM 1-methyl-3-isobutylxanthine, 0.1mM phenylmethylsulfonyl fluoride, pH 7.4) for 20 min at 37°C. Each peptide concentration was added in triplicate wells for 20 min at 37°C. cAMP dose-response curves for each tested peptide were obtained in a single 24-well plate. In all experiments, forskolin (100 nM) (Sigma-Aldrich, St.Louis, MO) was added as a positive control, also in triplicate wells, in the same 24-well plate as the tested peptide. After incubation, the media was removed and cells were lysed by the addition of cold ethanol (1 mL per well). Cell debris was pelleted by centrifugation (10,000 g) for 10-min, and supernatants were dried using a vacuum concentrator. Samples were resuspended in an assay buffer provided by the manufacturer and cAMP levels were quantified by the enzyme immunoassay kit (Cayman Chemicals, Ann Arbor, MI) according to the manufacturer’s instructions. The basal concentration of cAMP (in the absence of peptides) was taken as 1.00, and was in the range of 9–16 pmol/well. Results are presented as a fold-increase over basal.
Results were plotted by the Origin 9 software (OriginLab), and EC50 values were calculated by Prism 4 software as described below.
as §3
They are shown together with the 95% confidence intervals (CIs).
Comparison of EC50 values calculated from the zfGLP-1 cAMP dose-response curve with the EC50 calculated from the cAMP dose-response curves for each of the tested peptides were performed by the F-test from the Prism 4 software which compares the fitted mid-point (EC50) from the data sets of the two dose-response curves under comparison. Conditions of analysis were as follows: (i) in the normalization step y = 0% was set to be 1 (the basal cAMP concentration taken as 1); y = 100% was set to be the largest value in each data set; (ii) constrained curve-fit parameters were set to be equal to 0.00 on the bottom, 100 on top; (iii) EC50 was not constrained; (iv) the selected option in the non-linear regression curve fit was intended on finding out whether the best-fit of a selected parameter (EC50) differs between two sets.

In experiment [4] the test system is zfGPCR (dual zfGLP-1R/GCGR). To be noted: displacement of 125I-hGLP-1(7–36)amide; read-out: IC50 in competitive binding (earlier characterization of the zfGPCR); cited from earlier work. The procedure: Furthermore, exendin-4, an agonist of hGLP-1R, displaced in competitive binding experiments the binding of ^125I-hGLP-1(7–36) amide to the zebrafish receptor with an IC50 of 0.9 nM, which is within a similar concentration range as the one determined in competitive binding experiments with recombinant hGLP-1R [41] and rGLP-1R [23]. However, subsequent phylo ...

Experiment [5] deals with hGLP-1R mutant Ser155 to alanine. To be noted: Ser152 in hGCGR = Ser155 in hGLP-1R, mutated to alanine; cited from earlier work. An excerpt: Among those are TM1-TM7 interaction between Ser152^1.50 and Ser 390^7.47 in which Ser152^1.50 in TM1 in hGCGR forms a hydrogen bond with the backbone of Ser390^7.47 in TM7.
Experiment [6] has as its system hGLP-1R mutant Asn318 to alanine. Details: method as in PMID 23479653. To be noted: Asn318 mutated to alanine, cell surface expression unchanged; cited from earlier work.
Experiment [7] deals with recombinant glucagon receptor from the goldfish C. auratus (gfGCGR). Conditions: 95% CI: zebrafish glucagon 4.3–18 nM; goldfish glucagon 0.31–1 nM; cited from earlier work. The source says:
To be consistent with our initial characterization of this receptor which we referred to as zfGLP-1R [41] and the characterization of the gfGCGR [18] we used only the sequences of zfGLP-1 and zf glucagon used in those studies (shown in Fig 1) and not the second zfGLP-1 and second zebrafish glucagon found in the zebrafish genome.

Another experiment deals with goldfish GCGR. To be noted: 95% CI: goldfish glucagon 1.3–7 nM; human glucagon 4.7–20 nM; cited from earlier work. An excerpt:
In those studies the EC50 for goldfish glu ...

Experiment [8] has as its target recombinant glucagon receptor from the frog R. tigrina rugulosa. On the set-up: method as in PMID 10471837. To be noted: cited from earlier work.
A further experiment has as its system recombinant hGCGR. On the set-up: method as in PMID 7507321. To be noted: cited from earlier work.
Experiment [9] addresses glucagon receptor in rat hepatocytes. To be noted: cited from earlier work. The procedure:
(§4) Moreover, EC50’s for human and zebrafish glucagon obtained in our study were within similar concentration range as the EC50 ‘s determined in experiments with recombinant glucagon receptors from other vertebrate species. Thus, EC50‘s for human glucagon obtained from the cAMP assays performed with the recombinant glucagon receptor from the frog and the recombinant rat glucagon receptor were 0.8 nM [19] and 0.7nM [13], respectively, and are similar to the EC50 value of 1nM determined for the glucagon receptor in rat hepatocytes.

The target of experiment [10] is recombinant glucagon receptor from the frog. To be noted: cited from earlier work. The procedure: as §4
For experiment [11], the target named is recombinant rat glucagon receptor. To be noted: cited from earlier work. Here is the method:
as §4

In experiment [12] the test system is hGCGR mutant Cys240 to Tyr240. Conditions: cited from earlier work. An excerpt:
In the 7TM crystal structure of hGCGR [30], the side chain of Tyr239^3.44 in TM3 interacts with the backbone atoms of Gly359^6.50 (3.5Å) and Leu358^6.49 (2.8Å) in TM6. Tyr239^3.44 is conserved only in hGLP-1R and is substituted with Asn23 ...

For experiment [13], the system named is hGCGR mutant Glu362 to alanine. Conditions: reduced surface expression; cited from earlier work. An excerpt: Our inspection of the 7TM crystal structure of hGCGR [30] also identified a hydrophilic cluster formed by a salt bridge between Lys187^2.60 in TM2 and Glu362^6.53 in TM6, and hydrophilic portions of residues Tyr149^1.47 in TM1, Gln232^2.38, Asp238^2.43, […] in TM2; His361^6.52 in TM6, and Asp385^7.42, Ser389^7.46 Gln392^7.49 in TM7. This TM7-TM6-TM2-TM1 cluster offers a hydrophilic environment embedded deep inside the hydrophobic transmembrane.

Like-named read-outs stand apart in the source and are kept apart here.

With “GLP-1: refers to both GLP-1(7–37) and GLP-1(7–36)amide”, the “stimulation of intracellular cAMP, GLP-1 vs exendin-4” value in the experiment on GLP-1R is “to a similar degree”. The gluconeogenesis result in the experiment with fish hepatocytes is reported as “stimulated gluconeogenesis”.

Usually IC50 stands for the concentration that gives 50% inhibition. Usually EC50 stands for the concentration at which the effect is half-maximal. As for “hGLP-1: Synthetic hGLP-1(7–36)amide (referred throughout as hGLP-1), purchased from Bachem”, the IC50 in experiment [1] is 3.6 nM; in experiment [2], 178 nM; in [4] it was 0.9 nM. The EC50 in experiment [3] is 1 nM. In addition, the receptor affinity entry in experiment [5] is on record as “small reduction of receptor affinity”; in experiment [6], “reduced the receptor’s affinity”.

For “goldfish glucagon: glucagon of goldfish, literature comparison (HSEGTFSNDYSKYLETRRAQDFVEWLMNS; Glucagon; UniProt P79695 50-78, looked up)”, in experiment [7], the IC50 was 0.56 nM. In addition, the EC50 in the experiment with goldfish GCGR was 3 nM.

exendin(9–39): the IC50 in experiment [1] came out at 5.8 nM; in experiment [2] it was 4.21 nM. Moreover, in experiment [3] (cAMP assay), the “behaviour at the zfGPCR” value is “behaved as an antagonist”. The “stimulatory effect on cAMP levels” value in experiment [3] (even at 1μM, n = 4) is given as “did not show any stimulatory effects”. Moreover, the receptor affinity entry in experiment [6] is reported as “reduced the receptor’s affinity”.

Turning to “human glucagon: synthetic human glucagon purchased from Bachem”, the IC50 in [2] was 67 nM; in experiment [8] it was 12 nM; with recombinant hGCGR, 5 nM. Moreover, the EC50 in experiment [3] is 0.54 nM; in the experiment on goldfish GCGR it was 9.7 nM; in [9] it was 1 nM; in experiment [10], 0.8 nM; in experiment [11], 0.7 nM. In experiment [12], the “effect of mutation on binding to glucagon” value is “did not have an effect”. In addition, in experiment [13], the “effect of mutation on binding of glucagon” value is “decrease in the binding”.
